{
  "source": "patent US4191738A",
  "about": "“Immunoassay for N-desmethyldiazepam” (Hoffmann-La Roche Inc., priority 1978, dated 1980)",
  "key": {"[1]": {"test_system": "antiserum to N-desmethyldiazepam", "assay": "RIA cross-reactivity with the antiserum to N-desmethyldiazepam", "type": "binding, New Zealand white rabbit", "settings": "for % Cross-reaction: determined at 50% inhibition of antibody-bound ^3 H-N-desmethyldiazepam; for interference (cross-reactivity in words): RIA antiserum to N-desmethyldiazepam", "description": "(§1) Two New Zealand white rabbits were immunized by intradermal injection of the immunogen as an emulsion in Freund's complete adjuvant (1 mg/ml) using the protocol of Dixon et al. supra. The animals were then boosted at monthly intervals by intravenous and subcutaneous injection of 100 μg of the immunogen as a solution in isotonic saline via both routes. Serum was harvested at 10 to 14 days following each booster and stored at -20° C.\nThe assay was carried out in 12×75 mm glass tubes using 0.01 M Tris buffer (pH 7.5) containing 0.9% NaCl and 0.1% sodium azide. A calibration curve was generated by addition of ^3 H-N-desmethyldiazepam (15,000 cpm) in 0.5 ml of buffer to tubes containing 0.5 to 20 ng of unlabelled N-desmethyldiazepam in 50 μl of control plasma or blood followed by 0.4 ml of suitably diluted antiserum. Appropriate controls were included to determine nonspecific (i.e. absence of antiserum) and specific binding of the tracer. Following incubation at room temperature for 0.5 to 1 hr, an equal volume (1 ml) of saturated ammonium sulfate (adjusted to pH 7.5 with 5 N NaOH) was added to precipitate antibody-bound radioligand. The mixture was vortexed and after standing for 10 min at 4° C. in a refrigerated centrifuge, the tubes were centrifuged at 2500×g for 20 min. The supernate was removed by aspiration and the precipitate, containing the antibody-bound radioligand, dissolved in 0.4 ml of water. (When whole blood samples were assayed, the precipitate was washed twice with 1 ml of 50% saturated ammonium sulfate prior to its dissolution in water. This procedure removed virtually all of the heme proteins which might otherwise interfere with the subsequent liquid scintillation counting procedure.) After the addition of 3 ml of Aquasol (New England Nuclear, Boston, Mass. 02118) each tube was vortexed immediately to give a clear solution, capped with a Caplug (size 5X, Protective Closures Co., Inc., Buffalo, N.Y. 14207) and the tube counted directly as described by Dixon and Cohen, Clin. Chem, 22, 1746 (1976) in a modified liquid scintillation counter (Packard Tri-Carb, Model 3255, Packard Instrument Co., Ill. 60515). The counting efficiency for tritium under these conditions was 32%.\nAll samples were assayed in duplicate and the data calculated as outlined by Robard, Clin. Chem. 20, 1255 (1970) using a digital computer for iterative weighted linear regression analysis of logit B/Bo versus log dose where B and Bo are the amounts of antibody-bound radioligand in the presence and absence of unlabelled drug, respectively. Both B and Bo were corrected for nonspecific binding.\nThe specificity of the RIA was established by determination of the extent of cross-reactivity of a number of potential competitors with the antiserum and by comparison of the RIA method with the EC-GC procedure of de Silva et al., Anal. Chem. 48, 10 (1976).\n*Determined at 50% inhibition of antibodybound ^3"}, "[2]": {"test_system": "antibodies elicited by N-desmethyldiazepam-bovine gamma globulin conjugate", "settings": "3'-carboxypropyl linked conjugate, U.S. Pat. No. 4,046,636 Example 8; cited from earlier work"}, "[3]": {"test_system": "antiserum to N-desmethyldiazepam", "assay": "RIA calibration, binding of ^3 H-N-desmethyldiazepam to antiserum, sensitivity and precision", "set-up": "species or system New Zealand white rabbit", "description": "as §1\nThe assay was carried out in 12×75 mm glass tubes using 0.01 M Tris buffer (pH 7.5) containing 0.9% NaCl and 0.1% sodium azide. […] (When whole blood samples were assayed, the precipitate was washed twice with 1 ml of 50% saturated ammonium sulfate prior to its dissolution in water. This procedure removed virtually all of the heme proteins which might otherwise interfere with the subsequent liquid scintillation counting procedure.) After the addition of 3 ml of Aquasol (New England Nuclear, Boston, Mass. 02118) each tube was vortexed immediately to give a clear solution, capped with a Caplug (size 5X, Protective Closures Co., Inc., Buffalo, N.Y. 14207) and the tube counted directly as described by Dixon and Cohen, Clin. Chem, 22, 1746 (1976) in a modified liquid scintillation counter (Packard Tri-Carb, Model 3255, Packard Instrument Co., Ill. […]"}, "[4]": {"settings": "cited from earlier work"}},
  "note": "Values joined by “and” are separate entries in the source; they are usually repeats but may differ in a detail not shown here. Equal entries are not always repeated.",
  "data": [
    {"molecule": "Nc1ccc2c(c1)C(c1ccccc1Cl)=NCC(=O)N2", "note": "[7-Aminoclonazepam]", "values": [
      {"measurement": "% Cross-reaction", "setting": "[1]", "result": 0.07, "unit": "%"}
    ]},
    {"molecule": "CN(C)CCC=C1c2ccccc2CCc2ccccc21", "note": "[Amitriptyline]", "values": [
      {"measurement": "interference (cross-reactivity in words)", "setting": "[1]", "result": "negligible interference"},
      {"measurement": "% Cross-reaction", "setting": "[1]", "result": "< 0.01", "unit": "%"},
      {"measurement": "% Cross-reaction", "setting": "[1]; listed as amitriptyline", "result": "less than 1%"}
    ]},
    {"molecule": "CNC1=Nc2ccc(Cl)cc2C(c2ccccc2)=[N+]([O-])C1", "note": "[Chlordiazepoxide]", "values": [
      {"measurement": "% Cross-reaction", "setting": "[1]", "result": 0.2, "unit": "%"},
      {"measurement": "% Cross-reaction", "setting": "[1]; listed as chlordiazepoxide", "result": "less than 1%"},
      {"measurement": "cross-reaction with prior-art antibodies", "setting": "[2]", "result": "cross-react strongly"}
    ]},
    {"molecule": "O=C1CN=C(c2ccccc2Cl)c2cc([N+](=O)[O-])ccc2N1", "note": "[Clonazepam]", "values": [
      {"measurement": "interference (cross-reactivity in words)", "setting": "[1]", "result": "negligible interference"},
      {"measurement": "% Cross-reaction", "setting": "[1]", "result": 0.3, "unit": "%"},
      {"measurement": "% Cross-reaction", "setting": "[1]; listed as clonazepam", "result": "less than 1%"}
    ]},
    {"molecule": "O=C(O)C1N=C(c2ccccc2)c2cc(Cl)ccc2NC1=O", "note": "(stereo not shown) [Clorazepate]", "values": [
      {"measurement": "% Cross-reaction", "setting": "[1]", "result": "> 50", "unit": "%"},
      {"measurement": "% Cross-reaction", "setting": "[1]; listed as clorazepate", "result": "greater than 50%"}
    ]},
    {"molecule": "O=C1C[N+]([O-])=C(c2ccccc2)c2cc(Cl)ccc2N1", "note": "[Demoxepam]", "values": [
      {"measurement": "% Cross-reaction", "setting": "[1]", "result": 0.6, "unit": "%"},
      {"measurement": "% Cross-reaction", "setting": "[1]; listed as demoxepam", "result": "less than 1%"}
    ]},
    {"molecule": "CN1C(=O)CN=C(c2ccccc2)c2cc(Cl)ccc21", "note": "[Diazepam]", "values": [
      {"measurement": "% Cross-reaction", "setting": "[1]", "result": "0.6% and 0.5%"},
      {"measurement": "% Cross-reaction", "setting": "[1]; listed as diazepam", "result": "less than 1%"},
      {"measurement": "cross-reaction with prior-art antibodies", "setting": "[2]", "result": "cross-react strongly"}
    ]},
    {"molecule": "O=C1CN=C(c2ccccc2)c2cc(Cl)ccc2N1", "note": "[N-desmethyldiazepam]", "values": [
      {"measurement": "inhibition of binding of the radioligand to the antiserum", "setting": "[3]; 0.5 ng standard, plasma", "result": "greater than 10%"},
      {"measurement": "% Cross-reaction", "setting": "[1]", "result": 100, "unit": "%"},
      {"measurement": "cross-reaction with prior-art antibodies", "setting": "[2]", "result": "cross-react strongly"}
    ]},
    {"molecule": "CNCCC=C1c2ccccc2CCc2ccccc21", "note": "[Nortriptyline]", "values": [
      {"measurement": "% Cross-reaction", "setting": "[1]", "result": "< 0.01", "unit": "%"}
    ]},
    {"molecule": "O=C1Nc2ccc(Cl)cc2C(c2ccccc2)=NC1O", "note": "(stereo not shown) [Oxazepam]", "values": [
      {"measurement": "% Cross-reaction", "setting": "[1]", "result": 5.5, "unit": "%"},
      {"measurement": "cross-reaction with prior-art antibodies", "setting": "[2]", "result": "cross-react strongly"},
      {"measurement": "presence in plasma as metabolite of diazepam and clorazepate", "setting": "[4]", "result": "negligible quantities"}
    ]},
    {"molecule": "^3 H-N-desmethyldiazepam", "values": [
      {"measurement": "added radioligand bound by antiserum", "setting": "[3]; 0.5 μl of antiserum, after second booster immunization", "result": "approximately 50%"}
    ]}
  ]
}
